Reference: BindingDB's records for doi:10.1007/s10822-022-00478-x (Roche Innovation Center Basel, F. Hoffmann-La Roche Ltd., 2022)

Molecular target: cAMP and cAMP-inhibited cGMP 3',5'-cyclic phosphodiesterase 10A (Homo sapiens, UniProt Q9Y233)
Assay: PDE10A assay
Procedure, shortened: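 Human PDE10A (2 ng/well) preincubated 15 min RT with compound in HEPES pH 7.5, 10 mM MgCl2, BSA, then reacted 15 min with 50 nM [3H]cGMP/cGMP substrate. Stopped with Y-Si SPA beads; bound radioactivity counted, IC50 from four-parameter logistic, pIC50 = −log10(IC50).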

IC50 [nM] | SMILES
48 | Cc1c(Cl)nn2c(C)c(/C=C/c3nc(N4CCCC4)nn3C)nc2c1C [Roche-Dataset for PDE10A, Compound 309]
37 | O=C(Nc1ccnc(Cl)c1)c1ccc2cc(-c3ccccc3)nn2c1 [Roche-Dataset for PDE10A, Compound 310]
1550 | Cc1ncc(C)n2nc(/C=C/c3nc(N4CCNCC4)nn3C)nc12 [Roche-Dataset for PDE10A, Compound 311]
269 | Cn1cc(-c2ccccc2)nc1COc1cc(N2CCOCC2)nc(-c2cccnc2)n1 [Roche-Dataset for PDE10A, Compound 312]
5.67 | CCN(C)C(=O)c1cnn(C)c1C(=O)Nc1ccn2nc(N3CCOCC3)nc2c1 [Roche-Dataset for PDE10A, Compound 315]
19 | CN(C)C(=O)c1cnn(C)c1C(=O)N[C@@H]1CCn2cc(-c3ccccc3OC(F)F)nc2C1 [Roche-Dataset for PDE10A, Compound 317]
40 | CN(C)C(=O)c1cnn(C)c1C(=O)Nc1ccn2cc(-c3cccc(Br)c3)nc2n1 [Roche-Dataset for PDE10A, Compound 319]
53 | Cc1ccc(C)c(C(=O)Nc2ccc3cc(-c4ccccc4)nn3c2)n1 [Roche-Dataset for PDE10A, Compound 324]
432 | COC(=O)c1cc(Cl)c(C)n2nc(CCc3nc(N4CCCC4)nn3C)nc12 [Roche-Dataset for PDE10A, Compound 325]
587 | CN(C)c1nc(CCc2nccn2-c2ccccc2)nc2ccccc12 [Roche-Dataset for PDE10A, Compound 326]
38 | O=C(Nc1ccn2nc(-c3ccccc3)nc2c1)c1cc(Cl)nc(Cl)c1 [Roche-Dataset for PDE10A, Compound 327]
9270 | Cc1cccc(CCc2nc(-c3ccccc3)cn2C)n1 [Roche-Dataset for PDE10A, Compound 328]
3.76 | COc1ccccc1-c1cn2c(n1)C[C@H](NC(=O)c1c(C(=O)N3CCC3)cnn1C)CC2 [Roche-Dataset for PDE10A, Compound 330]
84 | CCc1cnc(C)cc1NC(=O)c1ccc2cc(-c3ccccc3)nn2c1 [Roche-Dataset for PDE10A, Compound 331]
10000 | COc1cccc(-c2noc(CCN3C(=O)c4ccccc4C3=O)n2)c1 [Roche-Dataset for PDE10A, Compound 332]
242 | Cc1ncc(Nc2cncnc2)c(C(=O)N[C@@H]2CCN(c3ccc(Cl)cn3)C2)n1 [Roche-Dataset for PDE10A, Compound 336]
1.16 | Cn1ncc(C(=O)N2CC(F)C2)c1C(=O)Nc1ccn2nc(-c3cccnc3)nc2c1 [Roche-Dataset for PDE10A, Compound 337]
16 | Cc1c(NC(=O)c2c(C(=O)N3CCC3)cnn2C)ccn2nc(-c3ccccc3)nc12 [Roche-Dataset for PDE10A, Compound 341]
467 | Cn1nc(N2CCCC2)nc1CCc1nc2c(C#N)cccn2n1 [Roche-Dataset for PDE10A, Compound 342]
4340 | Cn1ncc(C(=O)N2CCOCC2)c1C(=O)N[C@@H]1CCn2cc(-c3ccc(F)cc3)nc2C1 [Roche-Dataset for PDE10A, Compound 346]
129 | COC1CN(C(=O)c2cnn(C)c2C(=O)Nc2ccn3nc(N4CCOCC4)nc3c2)C1 [Roche-Dataset for PDE10A, Compound 348]

IC50 [nM] | SMILES
0.66 | COCCNC(=O)c1cc2[nH]c(-c3ccccc3)nc2cc1NC(=O)c1cc(C2CC2)cnc1OC [Roche-Dataset for PDE10A, Compound 349]
21 | Cc1cc(C)n2nc(/C=C/c3nc(N4CCCC4)nn3C3CC3)nc2n1 [Roche-Dataset for PDE10A, Compound 350]
173 | COc1ccccc1-c1cn2c(n1)C[C@H](NC(=O)c1c(C(=O)N(C)CCF)cnn1C)CC2 [Roche-Dataset for PDE10A, Compound 351]
21 | CCOC(=O)c1cnn(C)c1C(=O)Nc1ccn2nc(N3CCCC3)nc2c1 [Roche-Dataset for PDE10A, Compound 353]
1.15 | O=C(Nc1cc2nc(-c3ccccc3)cn2cc1Br)c1nc(C2CC2)ccc1Nc1cncnc1 [Roche-Dataset for PDE10A, Compound 354]
9.74 | COc1ccccc1-c1nc2cc(NC(=O)c3c(C(=O)O)cnn3C)ccn2n1 [Roche-Dataset for PDE10A, Compound 356]
0.55 | Cc1c(Cl)cc(Cl)c2nc(CCc3nc(N4CCCC4)nn3C)nn12 [Roche-Dataset for PDE10A, Compound 357]
22 | CNC(=O)c1cc2[nH]c(-c3ccccc3)nc2cc1NC(=O)c1c(Cl)c(C)nn1C [Roche-Dataset for PDE10A, Compound 358]
5600 | CN(c1cncnc1)c1ccc(C2CC2)nc1C(=O)Nc1cc(-c2ccccn2)nn1C [Roche-Dataset for PDE10A, Compound 360]
1000 | Cn1cc(-c2ccccc2)nc1CCc1ncoc1-c1ccccc1 [Roche-Dataset for PDE10A, Compound 361]
188 | COc1ccccc1-c1nc2n(c1Cl)CC[C@@H](NC(=O)c1c(C(=O)N3CCC3)cnn1C)C2 [Roche-Dataset for PDE10A, Compound 362]
73 | Cc1c(Br)cn2nc(/C=C/c3nc(N4CCCC4)n(C)n3)nc2c1C [Roche-Dataset for PDE10A, Compound 364]
144 | COc1cc(NC(=O)c2ccc3cc(-c4ccccc4)nn3c2)ccn1 [Roche-Dataset for PDE10A, Compound 365]
90 | Cn1cc(-c2ccccc2)nc1COc1nc2ccccc2c(=O)[nH]1 [Roche-Dataset for PDE10A, Compound 366]
1070 | O=C(Nc1ccncc1C(F)(F)F)c1ccc2cc(-c3ccccc3)nn2c1 [Roche-Dataset for PDE10A, Compound 367]
22 | CCn1nc(C)cc1C(=O)Nc1cc2nc(-c3ccccc3)[nH]c2cc1C(=O)NC [Roche-Dataset for PDE10A, Compound 369]
35 | Cn1ncc(Br)c1C(=O)Nc1ccn2nc(-c3ccccc3)nc2c1 [Roche-Dataset for PDE10A, Compound 371]
4.99 | Cn1ncc(C(=O)N2CC(F)C2)c1C(=O)Nc1ccn2nc(N3CCOCC3)nc2c1 [Roche-Dataset for PDE10A, Compound 372]
0.47 | Cc1cc(Cl)c(C)n2nc(CCc3nc(N4CCCC4)n(C)n3)nc12 [Roche-Dataset for PDE10A, Compound 374]
8.73 | Cc1ccc2nc(/C=C/c3nc(N4CCCC4)nn3C)nn2c1C [Roche-Dataset for PDE10A, Compound 375]
8.4 | COC[C@H]1CCCN1c1n[nH]c(CCc2nc3c(C)ncc(C)n3n2)n1 [Roche-Dataset for PDE10A, Compound 376]

IC50 [nM] | SMILES
19 | Cn1ncc(C(=O)O)c1C(=O)Nc1ccc2cc(-c3ccccc3)nn2c1 [Roche-Dataset for PDE10A, Compound 377]
15 | COC(=O)c1cnn(C)c1C(=O)Nc1ccn2nc(-c3ccccc3)nc2c1 [Roche-Dataset for PDE10A, Compound 378]
4.41 | COc1ccccc1-c1cn2c(n1)C[C@H](NC(=O)c1c(C(=O)N3CC(F)C3)cnn1C)CC2 [Roche-Dataset for PDE10A, Compound 379]
25 | Cn1ncc(C(=O)O)c1C(=O)Nc1ccn2nc(-c3cccc(F)c3)nc2c1 [Roche-Dataset for PDE10A, Compound 380]
641 | O=C(O)c1cccnc1C(=O)Nc1ccn2nc(-c3ccccc3)nc2c1 [Roche-Dataset for PDE10A, Compound 381]
24 | Cc1nc(C)n2nc(/C=C/c3nc(N4CCCC4)nn3C)nc2c1Cl [Roche-Dataset for PDE10A, Compound 382]
250 | O=C(NCCc1ccc(C(F)(F)F)cc1)c1nc(C2CC2)cnc1Nc1cncnc1 [Roche-Dataset for PDE10A, Compound 383]
35 | Cc1cc(NC(=O)c2ccc3cc(-c4ccccc4)nn3c2)ccn1 [Roche-Dataset for PDE10A, Compound 384]
71 | O=C(Nc1ccn2nc(-c3ccccc3)nc2c1)c1cncc(Cl)c1 [Roche-Dataset for PDE10A, Compound 385]
1.47 | COCc1ccc(Nc2cncnc2)c(C(=O)Nc2ccnn2-c2ccccn2)n1 [Roche-Dataset for PDE10A, Compound 386]
5.53 | COC[C@H]1CCCN1c1nc(/C=C/c2nc3c(C)ncc(C)n3n2)n(C)n1 [Roche-Dataset for PDE10A, Compound 388]
87 | COCc1cc(C(=O)Nc2ccn3nc(-c4ccccc4)nc3c2)n(C)n1 [Roche-Dataset for PDE10A, Compound 390]
197 | CNC(=O)c1cc2[nH]c(-c3ccccc3)nc2cc1NC(=O)c1cc(C)n(C)n1 [Roche-Dataset for PDE10A, Compound 391]
43 | Cc1ncc(C)n2nc(CCc3nc(N4CC[C@@H](C)[C@H]4C)nn3C)nc12 [Roche-Dataset for PDE10A, Compound 392]
4.58 | Cc1c(Cl)ccc2nc(/C=C/c3nc(N4CCCC4)n(C)n3)nn12 [Roche-Dataset for PDE10A, Compound 393]
570 | Cn1ncc(C(=O)O)c1C(=O)Nc1ccn2nc(-c3ccnc(F)c3)nc2c1 [Roche-Dataset for PDE10A, Compound 394]
17400 | Cc1[nH]c(-c2ccncc2)nc1CCN1C(=O)c2ccccc2C1=O [Roche-Dataset for PDE10A, Compound 395]
107 | Cc1nn(C)c2nc(OCc3nc(-c4ccccc4)cn3C)ncc12 [Roche-Dataset for PDE10A, Compound 396]
1.86 | Cn1ncc(C(=O)N2CCC2)c1C(=O)Nc1ccc2sc(N3CCOCC3)nc2c1 [Roche-Dataset for PDE10A, Compound 397]
354 | O=C(Nc1cc(Cl)ncc1Br)c1ccc2cc(-c3ccccc3)nn2c1 [Roche-Dataset for PDE10A, Compound 399]
82 | Cc1ncc(C)n2nc(CCc3ncn(-c4ccccc4)n3)nc12 [Roche-Dataset for PDE10A, Compound 400]
